US4784999A, “Novel treatment” (Beecham Wuelfing GmbH & Co. KG, priority 1986, dated 1988)

Legend:
[1] = test system: recall latency in the gerbil following transient forebrain ischaemia; test: Gerbil Ischaemic Deficit Passive Avoidance Test; type: in vivo, Mongolian gerbils; settings: Ischaemia and Test Compound, 10 mg/kg p.o., seven administrations; gerbils after 5 min bilateral carotid ligation; significantly different from ischaemic controls (p<0.05)
Description: Mongolian gerbils were conditioned to avoid entering a dark compartment by means of a footshock (maximally 50 V, 2 s duration) received when entering from the light section of a two compartment box. Recollection of the footshock was examined 24 h later by replacing the gerbils in the two compartment box and measuring the recall latency, the time taken to re-enter the dark compartment.
A learning or memory deficit was induced in the gerbils by a transient (5 min) bilateral carotid artery ligation, performed 24 h prior to conditioning, under light hexobarbital anaesthesia.
Compounds, being examined for an effect on learning or memory in gerbils which had undergone carotid occlusion, were administered seven times during the experiment The initial administration was during the period of forebrain ischaemia, the third and seventh administrations were 10 min prior to conditioning and recall testing, respectively, and the remainder were given at intermediate time points.
A long recall latency indicates good information acquisition or retrieval.

[2] = test system: Triethyltin-induced cerebral oedema; test: Triethyltin-induced cerebral oedema in the rat; type: in vivo; settings: 2×50 mg/kg orally, twice daily for 5 days of triethyltin intoxication; Wistar rats; brain water content; p<0.05 (student's t-test)
Description: The cerebral oedema is induced by oral administrations repeated for 5 consecutive days--one administration per day--of triethyltin chloride at a dose of 2 mg/kg. The test compound is also administered orally twice daily as aqueous solution or suspension at a dose of 1 ml/100 g body-weight; these administrations are given during the 5 days of intoxication with tin. Three groups of 10 male specific pathogen-free (SPF) Wistar rats of 280±10 g body-weight are used:
1 group intoxicated with triethyltin
1 group intoxicated with triethyltin and treated with the studied compound The rats are killed on the evening of the fifth day; the brain is removed, weighed fresh and after desiccation to constant weight and the water content of each brain is calculated [H2 O]=fresh weight-dry weight.
The following are then calculated the mean water content (M+Sm %) of each group; the protection index P due to the administered compound: [formula]

[3] = molecular target: cAMP phosphodiesterase of rat brain; test: Inhibitory activity on cAMP phosphodiesterase of rat brain (Dixon plot); type: biochemical; settings: homogenates of rat brain; 0.31 μM cyclic AMP as substrate; extrapolated from Dixon plot; read-out: apparent Ki
Description: The activity of cyclic AMP phosphodiesterase in homogenates of rat brain was measured in the presence of various concentrations of the compound 1,3-di-n-butyl-7-(2-oxypropyl)xanthine using 0.31 μM cyclic AMP as substration The reciprocal of the reaction rate was plotted on the y axis against each concentration of the compound on the x axis (Dixon plot). The apparent Ki value was estimated by extrapolating the steeper linear portion of the Dixon plot to the x axis and obtaining the negative intercept on the x axis.

[4] = test system: rat ischaemic gastrocnemius muscle; test: Oxygen tension (pO2) of rat ischaemic gastrocnemius muscle; type: in vivo; settings: 0.5 mg/kg administered intravenously; ischaemic hindlimb gastrocnemius muscle, anaesthetized rats; n=12; p<0.01 signed rank test

## CCCCn1c(=O)c2c(ncn2CC(C)=O)n(CCCC)c1=O [1,3-di-n-butyl-7-(2-oxypropyl)xanthine]
[1]
  Percentage of animals with recall latencies >60s: 36
[2]
  protection index P: 65%
[3]
  Ki: 64 µM
[4]
  mean (±SEM) increase in pO2: 5.7±2.1 torr
